Test results from US4372948A, “Derivative of saccharide and physiologically active agent containing the same” (Kureha Kagaku Kogyo Kabushiki Kaisha, priority 1980, dated 1983).

Tests used:
[1] = tested on: Sarcoma-180; assay: Anti-tumour activity against Sarcoma-180; type: in vivo, mouse (ICR-JCL); details: Mus musculus, Sarcoma-180, po, 600 h, 10 times every other day, tumour weight on 25th day, read-out: Antitumour activity, inhibiting rate (I.R.)
How it was run: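 ICR-JCL mice were given 1×10^6 Sarcoma-180 cells axillary; from 24 hours, compounds in saline were dosed orally at 500 mg/kg/time, 10 times every other day. Tumour nodes were weighed on day 25; inhibition rate = (1-T/C)×100(%) versus untreated tumour-bearing mice.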

[2] = tested on: cotton pellet granuloma; assay: Anti-granuloma activity (cotton pellet); type: in vivo, rat; details: Rattus norvegicus, po, 192 h, 7 days, read-out: I.R. against cotton pellet edema
How it was run: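 Rats (6/group) implanted dorsally with two 30±1 mg cotton pellets; compounds given orally in distilled water at 1000 mg/kg/day once daily for 7 days. Granuloma excised on day 8 and dry weight measured; value is % inhibition of granuloma proliferation.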

[3] = tested on: carrageenin edema; assay: Anti-Carrageenin edema activity; type: in vivo, rat; details: Rattus norvegicus, po, 1000 mg/kg once, read-out: I.R. against carrageenin edema
How it was run: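 Rats (10 per group) given compound orally once at 1000 mg/kg in distilled water, then 0.1 ml 1% carrageenin injected into right hind foot pad. Foot pad thickness measured at intervals; inhibition rate (%) = (1−T/C)×100 versus carrageenin-only animals.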

[4] = tested on: total cholesterol; assay: Anti-hyperlipemia activity, total cholesterol in blood; type: in vivo, rabbit (Japanese white male); details: oral, 300 mg/kg once; for Reduction of cholesterol level after 3 hrs.: negative = raising
How it was run: (§1)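 Male Japanese white rabbits fed 1% cholesterol diet for 3 months received compound once orally at 300 mg/kg in water. Ear-vein blood: cholesterol by enzymatic method, beta-lipoprotein by colorimetry; values are change from predose at 3 or 6 h.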

[5] = tested on: pseudo-escaping reaction to tail pressure; assay: Analgetic activity against mechanical stimulation of pressure; type: in vivo, mouse (ICR female); details: oral, 1000 mg/kg
[6] = in vivo; details: mouse, in vivo, po, mice, 7 days observation, read-out: LD50, acute oral toxicity
[7] = tested on: pyrexia (Saccharomyces cerevisiae); assay: Anti-pyrexia activity (yeast-induced); type: in vivo; details: Rattus norvegicus, oral, read-out: Rate of inhibiting pyrexia (I.R.)
How it was run: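 Rats (n=6/group) received subcutaneous 20% Saccharomyces cerevisiae suspension, fasted 10 h, then dosed orally with 1000 mg/kg compound in distilled water. Rectal temperature was tracked at set intervals and the lowest value taken; inhibition rate computed against non-yeast and yeast-only control temperatures.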

[8] = tested on: beta-lipoprotein; assay: Anti-hyperlipemia activity, beta-lipoprotein in blood; type: in vivo, rabbit (Japanese white male); details: oral, 300 mg/kg once
How it was run: as §1

[9] = tested on: blood pressure; assay: Anti-hypertension activity (reduction of blood pressure); type: in vivo, rat (spontaneous hypertension); details: oral, 300 mg/kg
How it was run: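 Spontaneously hypertensive rats dosed orally at 300 mg/kg in distilled water. Blood pressure measured at 3 and 6 h. Activity taken as change from the value just before dosing.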

[10] = tested on: exudation; assay: Anti-exudation activity (air pouch, croton oil); type: in vivo, rat; details: Rattus norvegicus, po, 144 h, 5 days, read-out: I.R. against exudation
How it was run: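 Rats, 6 per group, given subcutaneous dorsal air pouch injected with 0.5 ml sesame oil containing 1% croton oil. Compounds dosed orally in distilled water at 1000 mg/kg/day for five days; pouch exudate volume measured on day 6 and expressed as percent inhibition of exudation.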

[11] = tested on: acetic acid writhing; assay: Analgetic activity against chemical stimulation of acetic acid (writhing); type: in vivo, mouse (ICR female); details: Mus musculus, po, 30 min before 0.6% acetic acid, read-out: I.R. of writhing
From the text: Rate of inhibition (I.R.) (%)=(1-T/C)×100
T represents the average number of writhing of the group of mice administered with the present compound and injected with acetic acid, and C represents the average number of writhing of the group of mice only injected with acetic acid (control).

[12] = tested on: level of blood sugar; assay: Anti-hyperglycemia activity (reduction of blood sugar level); type: in vivo, rat (Wistar, streptozotocin); details: oral, 300 mg/kg
How it was run: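 Streptozotocin-diabetic Wistar rats (60 mg/kg i.p., relapsed hyperglycemia after insulin) given compounds orally at 300 mg/kg in distilled water. Blood sugar measured in samples taken 3 and 6 h post-dose.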

| SMILES | inhibition in vivo at 500 mg/kg [1] [%] | inhibition in vivo at 1000 mg/kg/day [2] [%] | inhibition in vivo at 1000 mg/kg [3] [%] | Reduction of cholesterol level after 3 hrs. [4] [mg/dL] | Reduction of cholesterol level after 6 hrs. [4] [mg/dL] | Pseudo-escapting reaction pressure [5] [mmHg] | Pseudo-escapting reaction time [5] [s] | LD50 at 168 h [6] [mg/kg] | inhibition in vivo at 1000 mg/kg [7] [%] | Reduction of beta-lipoprotein level after 3 hrs. [8] [mg/dL] | Reduction of beta-lipoprotein level after 6 hrs. [8] [mg/dL] | Reduced level of blood pressure after 3 hrs. [9] [mm Hg] | Reduced level of blood pressure after 6 hrs. [9] [mm Hg] | inhibition in vivo at 1000 mg/kg/day [10] [%] | inhibition in vivo at 1000 mg/kg [11] [%] | Reduced level of blood sugar after 3 hrs. [12] [mg/dL] | Reduced level of blood sugar after 6 hrs. [12] [mg/dL] |
| --- | --- | --- | --- | --- | --- | --- | --- | --- | --- | --- | --- | --- | --- | --- | --- | --- | --- |
| O=C(OCC1CCCCC1)c1ccccc1NC1O[C@H](CO)[C@@H](O[C@@H]2O[C@H](CO)[C@H](O)[C@H](O)[C@H]2O)[C@H](O)[C@H]1O (stereo partly drawn) [Compound 21, hexahydrobenzyl o-aminobenzoate-N-lactoside] | 44 | 7.2 | 19.4 | 4 | 43 | 84 | 40 | > 15000 | 28 | 96 | 109 | 16 | 17 | 20.7 | 28 | 95 | 102 |
| C[C@@H]1OC(Nc2cccc(C(=O)OCC3CCCCC3)c2)[C@@H](O)[C@H](O)[C@@H]1O (stereo partly drawn) [Compound 22, hexahydrobenzyl m-aminobenzoate-N-L-fucoside] | 35 | 15.7 | 24.6 | 6 | 38 | 75 | 37 | 10100 | 29 | 125 | 133 | 15 | 21 | 7.7 | 19 | 133 | 150 |
| O=C(OCC1CCCCC1)c1ccc(NC2OC[C@@H](O)[C@@H](O)[C@H]2O)cc1 (stereo partly drawn) [Compound 23, hexahydrobenzyl p-aminobenzoate-N-D-riboside] | 47 | 7.3 | 4.9 | -1 | 40 | 80 | 39 | 12600 | 15 | 141 | 143 | 21 | 22 | 22.5 | 23 | 120 | 126 |
| O=C(OCC1CCCCC1)c1ccc(NC2O[C@H](CO)[C@@H](O)[C@H](O)[C@H]2O)cc1 (stereo partly drawn) [Compound 24, hexahydrobenzyl p-aminobenzoate-N-D-glucoside] | 40 | 16.9 | 10.6 | 2 | 32 | 85 | 42 | 12100 | 48 | 95 | 111 | 19 | 21 | 8.7 | 41 | 101 | 145 |
| C[C@@H]1OC(Nc2ccc(C(=O)OCC3CCCCC3)cc2)[C@H](O)[C@H](O)[C@H]1O (stereo partly drawn) [Compound 25, hexahydrobenzyl p-aminobenzoate-N-L-rhamnoside] | 50 | 6.5 | 18.1 | -3 | 44 | 93 | 44 | 9400 | 54 | 95 | 106 | 16 | 18 | 22.3 | 50 | 88 | 127 |
| COC(=O)Cc1ccc(NC2O[C@@H](C)[C@H](O)[C@@H](O)[C@H]2O)cc1 (stereo partly drawn) [Compound 26, methyl p-aminophenylacetate-N-L-rhamnoside] | 45 | 24.1 | 5.3 | -3 | 51 | 92 | 41 | 11200 | 60 | 123 | 133 | 20 | 23 | 17.7 | 34 | 90 | 136 |
